The values below are quoted from earlier work in patent US20110201631A1, “PHARMACEUTICAL FORMULATIONS COMPRISING PEMETREXED” (DR. REDDY'S LABORATORIES LTD., priority 2008, published 2011).

The conditions of the data set: U.S. Pat. No. 7,138,521.

Take `Nc1nc2[nH]cc(CCc3ccc(C(=O)N[C@@H](CCC(=O)[O-])C(=O)[O-])cc3)c2c(=O)[nH]1.[Na+].[Na+]` [heptahydrate, L-Glutamic acid, N-[4-[2-(2-amino-4,7-dihydro-4-oxo-1H-pyrrolo[2,3-c]pyrimidin-5-yl)ethyl]benzoyl]-, disodium salt, heptahydrate]: the “Stability of crystal form relative to 2.5 hydrate” value was “much more stable than the previously known 2.5 hydrate”.
